In ChEMBL document CHEMBL3046351, “Insecticidal, antifeedant and antifungal activities of two glucosides isolated from the seeds of Simmondsia chinensis” (Ind Crops Prod, 2007):
Converted amounts (≈) assume the structure as drawn.

What was measured:
Rhizoctonia solani [1] = assay: Antifungal activity against Rhizoctonia solani; type: functional, organism-based
Spodoptera littoralis [2] = assay: Insecticidal activity against third instar larvae of topically treated Spodoptera littoralis assessed per larva after 24 hr; type: functional
Spodoptera littoralis [3] = assay: Antifeedant activity against third instar larvae of Spodoptera littoralis fed on compound-treated cotton leaf disks assessed as antifeedant index at 100 ug/ml measured after 24 hr by no-choice leaf disc method; type: functional
Spodoptera littoralis [4] = assay: Antifeedant activity against third instar larvae of Spodoptera littoralis fed on compound-treated cotton leaf disks assessed as antifeedant index at 50 ug/ml measured after 24 hr by no-choice leaf disc method; type: functional
Spodoptera littoralis [5] = assay: Antifeedant activity against third instar larvae of Spodoptera littoralis fed on compound-treated cotton leaf disks assessed as antifeedant index at 10 ug/ml measured after 24 hr by no-choice leaf disc method; type: functional
Fusarium oxysporum = assay: Antifungal activity against Fusarium oxysporum by radial growth inhibition method; type: functional, organism-based
[6] = tested on: Globisporangium debaryanum; assay: Antifungal activity against Pythium debaryanum by radial growth inhibition method; type: functional, organism-based
Botrytis fabae = assay: Antifungal activity against Botrytis fabae by radial growth inhibition method; type: functional, organism-based
Rhizoctonia solani [7] = assay: Antifungal activity against Rhizoctonia solani by radial growth inhibition method; type: functional, organism-based
Spodoptera littoralis [8] = assay: Antifeedant activity against third instar larvae of Spodoptera littoralis fed on compound-treated castor bean leaf disks measured after 24 hr by no-choice leaf disc method
Spodoptera littoralis [9] = assay: Antifeedant activity against third instar larvae of Spodoptera littoralis fed on compound-treated castor bean leaf disks assessed as antifeedant index at 500 ug/ml measured after 24 hr by no-choice leaf disc method
Spodoptera littoralis [10] = assay: Antifeedant activity against third instar larvae of Spodoptera littoralis fed on compound-treated castor bean leaf disks assessed as antifeedant index at 1000 ug/ml measured after 24 hr by no-choice leaf disc method

| Compound | EC50 (Rhizoctonia solani [1]) [µg/mL] | LD50 (Spodoptera littoralis [2]) [µg] | EC50 (Fusarium oxysporum) [µg/mL] | EC50 [6] [µg/mL] | EC50 (Botrytis fabae) [µg/mL] | EC50 (Rhizoctonia solani [7]) [µg/mL] | other results |
| --- | --- | --- | --- | --- | --- | --- | --- |
| CC1(C)C2CCC1(C)C(O)C2 (stereo not drawn) [BORNEOL] | 447 (≈ 2900 µM) |  |  |  |  |  |  |
| CC12CCC(CC1=O)C2(C)C (stereo not drawn) [CAMPHOR] | 488 (≈ 3210 µM) |  |  |  |  |  |  |
| Cc1ccc(C(C)C)cc1O [CARVACROL] | 41 (≈ 273 µM) |  |  |  |  |  |  |
| C=C(C)C1CC=C(C)[C@@H](O)C1 (stereo partly drawn) [CARVEOL] | 92 (≈ 604 µM) |  |  |  |  |  |  |
| CCOP(=S)(OCC)Oc1nc(Cl)c(Cl)cc1Cl [CHLORPYRIFOS] |  | 0.12 |  |  |  |  |  |
| O=C/C=C/c1ccccc1 [CINNAMALDEHYDE] | 169 (≈ 1280 µM) |  |  |  |  |  |  |
| COc1cc(/C=C\C(=O)O[C@@H]2[C@@H](O[C@@H]3C[C@H](OC)[C@H](OC)[C@@H](O)/C3=C/C#N)O[C@@H](CO)[C@H](O)[C@H]2O)ccc1O [SIMMONDSIN 2'-FERULATE] |  | 2.58 | 293 (≈ 532 µM) | 154 (≈ 279 µM) | 146 (≈ 265 µM) | 146 (≈ 265 µM) | AFI (Spodoptera littoralis [3]): 60.9%; AFI (Spodoptera littoralis [4]): 44.2%; AFI (Spodoptera littoralis [5]): 32.3%; Activity (Spodoptera littoralis [8]): Dose-dependent effect; AFI (Spodoptera littoralis [9]): 76.9%; AFI (Spodoptera littoralis [10]): 90% |
| CO[C@H]1[C@@H](OC)C[C@@H](O[C@H]2O[C@@H](CO)[C@H](O)[C@@H](O)[C@@H]2O)/C(=C\C#N)[C@@H]1O [SIMMONDSIN] |  | 1.49 | 223 (≈ 595 µM) | 147 (≈ 391 µM) | 116 (≈ 310 µM) | 129 (≈ 344 µM) | AFI (Spodoptera littoralis [3]): 63.4%; AFI (Spodoptera littoralis [4]): 46.2%; AFI (Spodoptera littoralis [5]): 38.1%; Activity (Spodoptera littoralis [8]): Dose-dependent effect; AFI (Spodoptera littoralis [9]): 78.9%; AFI (Spodoptera littoralis [10]): 92.1% |
| Cc1ccc(C(C)C)c(O)c1 [THYMOL] | 4 (≈ 26.6 µM) |  |  |  |  |  |  |
| COP(=S)(OC)Oc1c(Cl)cc(C)cc1Cl [TOLCOFOS-METHYL] |  |  | 51.3 (≈ 170 µM) | 8.9 (≈ 29.6 µM) | 21.9 (≈ 72.7 µM) | 5.7 (≈ 18.9 µM) |  |
